≈ marks a conversion by molar mass, not a printed value.
How the values were obtained:
Bacillus subtilis [1] = assay: Antimicrobial activity against Bacillus subtilis assessed as zone of inhibition at 50 ug/ml; assay type: functional; details: read-out: IZ
Aspergillus fumigatus = assay: Antifungal activity against Aspergillus fumigatus assessed as zone of inhibition at 50 ug/ml; assay type: functional; details: read-out: IZ
Pseudomonas aeruginosa [2] = assay: Antimicrobial activity against Pseudomonas aeruginosa assessed as zone of inhibition at 50 ug/ml; assay type: functional; details: read-out: IZ
Staphylococcus aureus [3] = assay: Antimicrobial activity against Staphylococcus aureus assessed as zone of inhibition at 50 ug/ml; assay type: functional; details: read-out: IZ
Escherichia coli [4] = assay: Antimicrobial activity against Escherichia coli assessed as zone of inhibition at 50 ug/ml; assay type: functional; details: read-out: IZ
Candida albicans [5] = assay: Antifungal activity against Candida albicans assessed as zone of inhibition at 50 ug/ml; assay type: functional; details: read-out: IZ
Staphylococcus aureus [6] = assay: Antimicrobial activity against Staphylococcus aureus; assay type: functional
Aspergillus niger [7] = assay: Antifungal activity against Aspergillus niger; assay type: functional
Candida albicans [8] = assay: Antifungal activity against Candida albicans; assay type: functional
Pseudomonas aeruginosa [9] = assay: Antimicrobial activity against Pseudomonas aeruginosa assessed as zone of inhibition at 250 ug/ml; assay type: functional; details: read-out: IZ
Escherichia coli [10] = assay: Antimicrobial activity against Escherichia coli; assay type: functional
Bacillus cereus [11] = assay: Antimicrobial activity against Bacillus cereus assessed as zone of inhibition at 250 ug/ml; assay type: functional; details: read-out: IZ
Candida albicans [12] = assay: Antifungal activity against Candida albicans assessed as zone of inhibition at 250 ug/ml; assay type: functional; details: read-out: IZ
Escherichia coli [13] = assay: Antimicrobial activity against Escherichia coli assessed as zone of inhibition at 250 ug/ml; assay type: functional; details: read-out: IZ
Pseudomonas aeruginosa [14] = assay: Antimicrobial activity against Pseudomonas aeruginosa; assay type: functional
Aspergillus niger [15] = assay: Antifungal activity against Aspergillus niger assessed as zone of inhibition at 250 ug/ml; assay type: functional; details: read-out: IZ
Staphylococcus aureus [16] = assay: Antimicrobial activity against Staphylococcus aureus assessed as zone of inhibition at 250 ug/ml; assay type: functional; details: read-out: IZ
Bacillus cereus [17] = assay: Antimicrobial activity against Bacillus cereus; assay type: functional
Salmonella typhimurium = assay: Antimicrobial activity against Salmonella typhimurium; assay type: functional, Salmonella enterica subsp. enterica serovar Typhimurium; details: Salmonella enterica
Bacillus subtilis [18] = assay: Antimicrobial activity against Bacillus subtilis; assay type: functional

| Structure (SMILES) | zone of inhibition at 50 µg/mL (Bacillus subtilis [1]) | zone of inhibition at 50 µg/mL (Aspergillus fumigatus) | zone of inhibition at 50 µg/mL (Pseudomonas aeruginosa [2]) | zone of inhibition at 50 µg/mL (Staphylococcus aureus [3]) | zone of inhibition at 50 µg/mL (Escherichia coli [4]) | zone of inhibition at 50 µg/mL (Candida albicans [5]) | MIC (Staphylococcus aureus [6]) | MIC (Aspergillus niger [7]) | MIC (Candida albicans [8]) | zone of inhibition at 250 µg/mL (Pseudomonas aeruginosa [9]) | MIC (Escherichia coli [10]) | zone of inhibition at 250 µg/mL (Bacillus cereus [11]) | zone of inhibition at 250 µg/mL (Candida albicans [12]) | zone of inhibition at 250 µg/mL (Escherichia coli [13]) | MIC (Pseudomonas aeruginosa [14]) | zone of inhibition at 250 µg/mL (Aspergillus niger [15]) | zone of inhibition at 250 µg/mL (Staphylococcus aureus [16]) | MIC (Bacillus cereus [17]) | MIC (Salmonella typhimurium) | MIC (Bacillus subtilis [18]) |
| --- | --- | --- | --- | --- | --- | --- | --- | --- | --- | --- | --- | --- | --- | --- | --- | --- | --- | --- | --- | --- |
| c1ccc(-n2nnnc2-c2cccnc2)cc1 | 10 to 22 mm | 10 to 22 mm | 10 to 22 mm | 10 to 22 mm | 10 to 22 mm | 10 to 22 mm | – | – | – | – | – | – | – | – | – | – | – | – | – | – |
| Cc1ccc(-n2nnnc2-c2cccnc2)cc1 | 10 to 22 mm | 10 to 22 mm | 10 to 22 mm | 10 to 22 mm | 10 to 22 mm | 10 to 22 mm | – | – | – | – | – | – | – | – | – | – | – | – | – | – |
| COc1ccc(-n2nnnc2-c2cccnc2)cc1 | 10 to 22 mm | 10 to 22 mm | 10 to 22 mm | 10 to 22 mm | 10 to 22 mm | 10 to 22 mm | – | – | – | – | – | – | – | – | – | – | – | – | – | – |
| c1ccc(-c2nnnn2-c2ccccn2)cc1 | 10 to 24 mm | 10 to 24 mm | 10 to 24 mm | 10 to 24 mm | 10 to 24 mm | 10 to 24 mm | – | – | – | – | – | – | – | – | – | – | – | – | – | – |
| Cc1ccc(-c2nnnn2-c2ccccn2)cc1 | 10 to 24 mm | 10 to 24 mm | 10 to 24 mm | 10 to 24 mm | 10 to 24 mm | 10 to 24 mm | – | – | – | – | – | – | – | – | – | – | – | – | – | – |
| O=[N+]([O-])c1ccc(-n2nnnc2-c2cccnc2)cc1 | 10 to 22 mm | 10 to 22 mm | 10 to 22 mm | 10 to 22 mm | 10 to 22 mm | 10 to 22 mm | – | – | – | – | – | – | – | – | – | – | – | – | – | – |
| Clc1cccc(-n2nnnc2-c2cccnc2)c1Cl | 10 to 22 mm | 10 to 22 mm | 10 to 22 mm | 10 to 22 mm | 10 to 22 mm | 10 to 22 mm | – | – | – | – | – | – | – | – | – | – | – | – | – | – |
| CN(C)c1ccc(-c2nnnn2-c2nc3ccccc3s2)cc1 | – | – | – | – | – | – | 50 to 100 µg/mL (≈ 155 to 310 µM) | 50 to 100 µg/mL (≈ 155 to 310 µM) | 50 to 100 µg/mL (≈ 155 to 310 µM) | 16 to 26 mm | 50 to 100 µg/mL (≈ 155 to 310 µM) | 16 to 26 mm | 16 to 26 mm | 16 to 26 mm | 50 to 100 µg/mL (≈ 155 to 310 µM) | 16 to 26 mm | 16 to 26 mm | 50 to 100 µg/mL (≈ 155 to 310 µM) | – | – |
| c1ccc(-c2nnnn2-c2nc3ccccc3s2)cc1 | – | – | – | – | – | – | 50 to 100 µg/mL (≈ 179 to 358 µM) | 50 to 100 µg/mL (≈ 179 to 358 µM) | 50 to 100 µg/mL (≈ 179 to 358 µM) | 16 to 26 mm | 50 to 100 µg/mL (≈ 179 to 358 µM) | 16 to 26 mm | 16 to 26 mm | 16 to 26 mm | 50 to 100 µg/mL (≈ 179 to 358 µM) | 16 to 26 mm | 16 to 26 mm | 50 to 100 µg/mL (≈ 179 to 358 µM) | – | – |
| CCCCCC(O)C(C(CCCCCCC(=O)OCCn1c([N+](=O)[O-])cnc1C)n1nnnc1C)n1nnnc1C (configuration not stated) | – | – | – | – | – | – | 72 µg/mL (≈ 125 µM) | – | 124 µg/mL (≈ 215 µM) | – | 26 µg/mL (≈ 45.2 µM) | – | – | – | – | – | – | – | 34 µg/mL (≈ 59.1 µM) | 24 to 76 µg/mL (≈ 41.7 to 132 µM) |
| O=[N+]([O-])c1cc(-c2nnnn2-c2ccccn2)cc([N+](=O)[O-])c1 | 10 to 24 mm | 10 to 24 mm | 10 to 24 mm | 10 to 24 mm | 10 to 24 mm | 10 to 24 mm | – | – | – | – | – | – | – | – | – | – | – | – | – | – |
| Oc1cccc(-c2nnnn2-c2nc3ccccc3s2)c1 | – | – | – | – | – | – | 50 to 100 µg/mL (≈ 169 to 339 µM) | 50 to 100 µg/mL (≈ 169 to 339 µM) | 50 to 100 µg/mL (≈ 169 to 339 µM) | 16 to 26 mm | 50 to 100 µg/mL (≈ 169 to 339 µM) | 16 to 26 mm | 16 to 26 mm | 16 to 26 mm | 50 to 100 µg/mL (≈ 169 to 339 µM) | 16 to 26 mm | 16 to 26 mm | 50 to 100 µg/mL (≈ 169 to 339 µM) | – | – |
| Brc1ccc(-n2nnnc2-c2cccnc2)cc1 | 10 to 22 mm | 10 to 22 mm | 10 to 22 mm | 10 to 22 mm | 10 to 22 mm | 10 to 22 mm | – | – | – | – | – | – | – | – | – | – | – | – | – | – |
| Clc1ccc(-n2nnnc2-c2cccnc2)cc1 | 10 to 22 mm | 10 to 22 mm | 10 to 22 mm | 10 to 22 mm | 10 to 22 mm | 10 to 22 mm | – | – | – | – | – | – | – | – | – | – | – | – | – | – |
| Clc1ccccc1-c1nnnn1-c1ccccn1 | 10 to 24 mm | 10 to 24 mm | 10 to 24 mm | 10 to 24 mm | 10 to 24 mm | 10 to 24 mm | – | – | – | – | – | – | – | – | – | – | – | – | – | – |

— ChEMBL document CHEMBL4342421, “Current scenario of tetrazole hybrids for antibacterial activity” (Eur J Med Chem, 2019)
